Experimental data published in PMC10838953.

Columns and labels:
[1] = test system: RPTEC (renal proximal tubule epithelial cells); conditions: high concentrations
CK2 in HEK293 cells = conditions: read-out: IC50 CK2 activity in cell extracts
[2] = molecular target: ABL1(T315I)-nonphosphorylated (Homo sapiens, UniProt P00519, T315I); test: biochemical; conditions: read-out: %Ctrl @ 2000nM
AKT3 = AKT3 (Homo sapiens, UniProt Q9Y243); test: biochemical; conditions: read-out: %Ctrl @ 2000nM
CDC2L1 = CDC2L1 (Homo sapiens, UniProt P21127); test: biochemical; conditions: read-out: %Ctrl @ 2000nM
CDK11 = CDK11 (Homo sapiens, UniProt Q9BWU1); test: biochemical; conditions: read-out: %Ctrl @ 2000nM
CSNK1E = CSNK1E (Homo sapiens, UniProt P49674); test: biochemical; conditions: read-out: %Ctrl @ 2000nM
CSNK1G1 = CSNK1G1 (Homo sapiens, UniProt Q9HCP0); test: biochemical; conditions: read-out: %Ctrl @ 2000nM
EGFR(E746-A750del) = EGFR(E746-A750del) (Homo sapiens, UniProt P00533, DEL746-750); test: biochemical; conditions: read-out: %Ctrl @ 2000nM
[3] = molecular target: EGFR(L747-S752del, P753S) (Homo sapiens, UniProt P00533, DEL747-752/P753S); test: biochemical; conditions: read-out: %Ctrl @ 2000nM
EGFR(L858R,T790M) = EGFR(L858R,T790M) (Homo sapiens, UniProt P00533, L858R/T790M); test: biochemical; conditions: read-out: %Ctrl @ 2000nM
EPHB1 = EPHB1 (Homo sapiens, UniProt P54762); test: biochemical; conditions: read-out: %Ctrl @ 2000nM
ERK5 = ERK5 (Homo sapiens, UniProt Q13164); test: biochemical; conditions: read-out: %Ctrl @ 2000nM
FLT3(K663Q) = FLT3(K663Q) (Homo sapiens, UniProt P36888, K663Q); test: biochemical; conditions: read-out: %Ctrl @ 2000nM
GRK4 = GRK4 (Homo sapiens, UniProt P32298); test: biochemical; conditions: read-out: %Ctrl @ 2000nM
IRAK4 = IRAK4 (Homo sapiens, UniProt Q9NWZ3); test: biochemical; conditions: read-out: %Ctrl @ 2000nM
LRRK2 = LRRK2 (Homo sapiens, UniProt Q5S007); test: biochemical; conditions: read-out: %Ctrl @ 2000nM
MAP4K4 = MAP4K4 (Homo sapiens, UniProt O95819); test: biochemical; conditions: read-out: %Ctrl @ 2000nM
MYLK = MYLK (Homo sapiens, UniProt Q15746); test: biochemical; conditions: read-out: %Ctrl @ 2000nM
NEK5 = NEK5 (Homo sapiens, UniProt Q6P3R8); test: biochemical; conditions: read-out: %Ctrl @ 2000nM
NEK6 = NEK6 (Homo sapiens, UniProt Q9HC98); test: biochemical; conditions: read-out: %Ctrl @ 2000nM
NIK = NIK (Homo sapiens, UniProt Q99558); test: biochemical; conditions: read-out: %Ctrl @ 2000nM
NIM1 = NIM1 (Homo sapiens, UniProt Q8IY84); test: biochemical; conditions: read-out: %Ctrl @ 2000nM
PIK3CA(E542K) = PIK3CA(E542K) (Homo sapiens, UniProt P42336, E542K); test: biochemical; conditions: read-out: %Ctrl @ 2000nM
PIK3CD = PIK3CD (Homo sapiens, UniProt O00329); test: biochemical; conditions: read-out: %Ctrl @ 2000nM
PIP5K2B = PIP5K2B (Homo sapiens, UniProt P78356); test: biochemical; conditions: read-out: %Ctrl @ 2000nM
PRKCQ = PRKCQ (Homo sapiens, UniProt Q04759); test: biochemical; conditions: read-out: %Ctrl @ 2000nM
PRKX = PRKX (Homo sapiens, UniProt P51817); test: biochemical; conditions: read-out: %Ctrl @ 2000nM
RET(M918T) = RET(M918T) (Homo sapiens, UniProt P07949, M918T); test: biochemical; conditions: read-out: %Ctrl @ 2000nM
RIOK1 = RIOK1 (Homo sapiens, UniProt Q9BRS2); test: biochemical; conditions: read-out: %Ctrl @ 2000nM
[4] = molecular target: RPS6KA4(Kin.Dom.1-N-terminal) (Homo sapiens, UniProt O75676); test: biochemical; conditions: read-out: %Ctrl @ 2000nM
[5] = molecular target: RSK2(Kin.Dom.2-C-terminal) (Homo sapiens, UniProt P51812); test: biochemical; conditions: read-out: %Ctrl @ 2000nM
SGK2 = SGK2 (Homo sapiens, UniProt Q9HBY8); test: biochemical; conditions: read-out: %Ctrl @ 2000nM
SRC = SRC (Homo sapiens, UniProt P12931); test: biochemical; conditions: read-out: %Ctrl @ 2000nM
TNK2 = TNK2 (Homo sapiens, UniProt Q07912); test: biochemical; conditions: read-out: %Ctrl @ 2000nM
ZAP70 = ZAP70 (Homo sapiens, UniProt P43403); test: biochemical; conditions: read-out: %Ctrl @ 2000nM
Sequence of ZAP70 (P43403 whole entry): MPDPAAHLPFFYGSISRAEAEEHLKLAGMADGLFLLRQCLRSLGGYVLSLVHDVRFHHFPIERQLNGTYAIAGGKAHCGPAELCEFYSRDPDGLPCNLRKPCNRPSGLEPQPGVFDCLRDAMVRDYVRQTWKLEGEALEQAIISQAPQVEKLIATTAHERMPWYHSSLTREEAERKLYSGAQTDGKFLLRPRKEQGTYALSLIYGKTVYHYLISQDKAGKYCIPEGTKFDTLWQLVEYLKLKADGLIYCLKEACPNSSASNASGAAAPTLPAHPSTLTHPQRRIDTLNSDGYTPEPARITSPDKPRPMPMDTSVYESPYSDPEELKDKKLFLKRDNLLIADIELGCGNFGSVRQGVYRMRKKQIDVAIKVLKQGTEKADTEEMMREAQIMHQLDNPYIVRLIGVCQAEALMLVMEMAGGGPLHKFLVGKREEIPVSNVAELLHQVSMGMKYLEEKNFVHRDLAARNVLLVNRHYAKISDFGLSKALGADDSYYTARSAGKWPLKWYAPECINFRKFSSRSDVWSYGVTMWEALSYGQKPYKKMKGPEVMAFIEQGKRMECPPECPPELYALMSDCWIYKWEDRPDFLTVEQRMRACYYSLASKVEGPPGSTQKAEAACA

Sequence of CSNK1G1 (Q9HCP0 whole entry): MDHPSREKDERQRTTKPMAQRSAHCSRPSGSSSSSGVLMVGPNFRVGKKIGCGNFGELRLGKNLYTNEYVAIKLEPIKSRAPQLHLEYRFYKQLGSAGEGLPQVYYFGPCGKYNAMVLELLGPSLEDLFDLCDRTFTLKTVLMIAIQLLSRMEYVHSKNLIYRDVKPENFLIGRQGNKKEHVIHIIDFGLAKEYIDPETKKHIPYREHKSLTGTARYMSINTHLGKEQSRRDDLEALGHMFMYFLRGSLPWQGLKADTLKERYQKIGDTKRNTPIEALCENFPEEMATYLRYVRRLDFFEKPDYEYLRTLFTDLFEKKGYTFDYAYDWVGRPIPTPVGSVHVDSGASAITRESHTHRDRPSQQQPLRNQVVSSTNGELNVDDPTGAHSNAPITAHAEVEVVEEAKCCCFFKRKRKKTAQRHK
Sequence of PIK3CD (O00329 whole entry): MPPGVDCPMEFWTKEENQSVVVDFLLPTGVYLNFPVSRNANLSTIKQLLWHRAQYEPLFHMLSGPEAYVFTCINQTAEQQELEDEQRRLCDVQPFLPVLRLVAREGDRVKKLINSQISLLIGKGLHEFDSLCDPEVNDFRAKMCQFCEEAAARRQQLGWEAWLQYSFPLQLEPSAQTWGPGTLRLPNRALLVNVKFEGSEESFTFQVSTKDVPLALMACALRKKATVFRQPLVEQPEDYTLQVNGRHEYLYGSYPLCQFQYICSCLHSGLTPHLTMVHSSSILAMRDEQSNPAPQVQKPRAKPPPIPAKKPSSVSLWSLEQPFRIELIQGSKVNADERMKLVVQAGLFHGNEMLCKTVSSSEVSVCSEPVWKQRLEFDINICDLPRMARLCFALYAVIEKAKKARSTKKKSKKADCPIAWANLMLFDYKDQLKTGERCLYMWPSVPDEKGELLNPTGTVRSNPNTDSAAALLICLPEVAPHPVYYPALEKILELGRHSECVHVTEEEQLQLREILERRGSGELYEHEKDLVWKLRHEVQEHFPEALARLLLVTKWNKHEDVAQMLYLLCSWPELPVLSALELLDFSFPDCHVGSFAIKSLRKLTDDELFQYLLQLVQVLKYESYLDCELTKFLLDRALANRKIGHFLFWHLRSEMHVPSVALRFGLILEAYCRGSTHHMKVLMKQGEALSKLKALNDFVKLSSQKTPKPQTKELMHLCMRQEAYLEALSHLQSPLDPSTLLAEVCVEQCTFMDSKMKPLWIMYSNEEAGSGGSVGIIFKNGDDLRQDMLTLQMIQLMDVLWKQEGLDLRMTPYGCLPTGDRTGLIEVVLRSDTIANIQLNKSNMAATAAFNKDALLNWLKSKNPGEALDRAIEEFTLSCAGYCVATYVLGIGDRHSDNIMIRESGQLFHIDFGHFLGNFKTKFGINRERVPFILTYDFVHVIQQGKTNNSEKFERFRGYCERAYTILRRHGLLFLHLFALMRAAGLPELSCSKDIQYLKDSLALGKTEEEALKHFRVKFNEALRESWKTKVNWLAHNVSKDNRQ
Sequence of NEK6 (Q9HC98 whole entry): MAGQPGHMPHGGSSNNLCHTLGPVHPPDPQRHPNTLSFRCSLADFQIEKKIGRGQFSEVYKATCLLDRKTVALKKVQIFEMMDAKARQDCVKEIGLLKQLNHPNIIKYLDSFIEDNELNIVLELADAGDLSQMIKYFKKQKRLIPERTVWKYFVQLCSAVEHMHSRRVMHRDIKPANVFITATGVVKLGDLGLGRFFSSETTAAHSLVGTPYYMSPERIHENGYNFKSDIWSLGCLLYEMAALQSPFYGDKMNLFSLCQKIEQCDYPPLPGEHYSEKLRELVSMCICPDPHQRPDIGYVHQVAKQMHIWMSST
Sequence of PIP5K2B (P78356 whole entry): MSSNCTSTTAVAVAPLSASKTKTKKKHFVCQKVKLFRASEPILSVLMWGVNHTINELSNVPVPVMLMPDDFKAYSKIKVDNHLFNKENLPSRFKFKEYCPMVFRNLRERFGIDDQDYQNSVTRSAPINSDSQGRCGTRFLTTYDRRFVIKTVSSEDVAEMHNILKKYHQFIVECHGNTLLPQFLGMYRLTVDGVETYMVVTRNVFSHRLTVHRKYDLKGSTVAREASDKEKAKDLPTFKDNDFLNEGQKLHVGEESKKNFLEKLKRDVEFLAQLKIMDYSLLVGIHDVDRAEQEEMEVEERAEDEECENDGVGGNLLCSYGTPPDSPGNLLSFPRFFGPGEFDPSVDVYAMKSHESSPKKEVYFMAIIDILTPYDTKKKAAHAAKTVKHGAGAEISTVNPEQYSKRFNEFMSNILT
Sequence of EGFR(E746-A750del) (P00533 with tags, fused parts or gaps DEL746-750 limits assumed): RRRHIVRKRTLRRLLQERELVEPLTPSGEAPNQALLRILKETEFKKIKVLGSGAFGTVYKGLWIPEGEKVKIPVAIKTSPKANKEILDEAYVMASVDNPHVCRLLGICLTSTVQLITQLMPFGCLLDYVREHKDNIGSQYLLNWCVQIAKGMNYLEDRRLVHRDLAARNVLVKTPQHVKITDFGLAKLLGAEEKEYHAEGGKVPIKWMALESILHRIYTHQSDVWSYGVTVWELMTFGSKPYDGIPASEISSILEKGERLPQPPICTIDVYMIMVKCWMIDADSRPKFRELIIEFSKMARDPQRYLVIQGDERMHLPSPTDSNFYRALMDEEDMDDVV
Sequence of CSNK1E (P49674 whole entry): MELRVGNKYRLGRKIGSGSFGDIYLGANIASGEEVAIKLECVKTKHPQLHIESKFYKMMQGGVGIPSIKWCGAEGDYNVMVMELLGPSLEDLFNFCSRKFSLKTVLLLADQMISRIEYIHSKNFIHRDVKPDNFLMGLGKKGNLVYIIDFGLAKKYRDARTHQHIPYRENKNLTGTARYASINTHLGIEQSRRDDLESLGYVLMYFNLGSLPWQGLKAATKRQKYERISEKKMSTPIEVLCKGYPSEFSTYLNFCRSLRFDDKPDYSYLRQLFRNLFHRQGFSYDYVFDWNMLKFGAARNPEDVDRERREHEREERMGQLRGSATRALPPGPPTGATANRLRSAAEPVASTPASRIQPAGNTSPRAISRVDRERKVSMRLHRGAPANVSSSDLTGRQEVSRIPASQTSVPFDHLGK
Sequence of TNK2 (Q07912 whole entry): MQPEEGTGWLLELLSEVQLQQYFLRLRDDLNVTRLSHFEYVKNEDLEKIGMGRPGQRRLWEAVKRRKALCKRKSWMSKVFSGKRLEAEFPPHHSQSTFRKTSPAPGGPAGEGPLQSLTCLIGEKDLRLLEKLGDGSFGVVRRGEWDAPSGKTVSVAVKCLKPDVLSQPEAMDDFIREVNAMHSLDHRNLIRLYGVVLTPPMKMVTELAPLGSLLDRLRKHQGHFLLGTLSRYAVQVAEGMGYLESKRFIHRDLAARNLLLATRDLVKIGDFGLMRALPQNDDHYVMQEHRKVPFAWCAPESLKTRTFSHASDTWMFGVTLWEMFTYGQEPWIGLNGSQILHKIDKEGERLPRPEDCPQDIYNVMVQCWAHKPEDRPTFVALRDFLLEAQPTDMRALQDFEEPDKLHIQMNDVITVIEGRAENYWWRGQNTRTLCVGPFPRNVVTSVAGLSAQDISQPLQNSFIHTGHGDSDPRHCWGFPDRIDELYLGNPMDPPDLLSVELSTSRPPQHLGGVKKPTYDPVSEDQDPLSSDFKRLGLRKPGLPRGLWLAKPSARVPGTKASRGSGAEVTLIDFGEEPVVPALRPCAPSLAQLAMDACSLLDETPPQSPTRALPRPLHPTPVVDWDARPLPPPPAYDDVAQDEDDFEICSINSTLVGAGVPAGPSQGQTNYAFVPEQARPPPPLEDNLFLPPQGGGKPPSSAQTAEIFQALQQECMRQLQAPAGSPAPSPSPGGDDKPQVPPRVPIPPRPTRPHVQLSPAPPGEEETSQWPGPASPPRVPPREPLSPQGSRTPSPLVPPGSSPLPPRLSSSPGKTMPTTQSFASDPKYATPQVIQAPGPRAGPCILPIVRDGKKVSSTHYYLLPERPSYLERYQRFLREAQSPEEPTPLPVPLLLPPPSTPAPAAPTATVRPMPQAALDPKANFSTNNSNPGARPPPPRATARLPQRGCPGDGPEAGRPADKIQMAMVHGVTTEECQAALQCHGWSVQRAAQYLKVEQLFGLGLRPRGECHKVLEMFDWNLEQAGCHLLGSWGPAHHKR
Sequence of RPS6KA4(Kin.Dom.1-N-terminal) (O75676 1-371 limits assumed): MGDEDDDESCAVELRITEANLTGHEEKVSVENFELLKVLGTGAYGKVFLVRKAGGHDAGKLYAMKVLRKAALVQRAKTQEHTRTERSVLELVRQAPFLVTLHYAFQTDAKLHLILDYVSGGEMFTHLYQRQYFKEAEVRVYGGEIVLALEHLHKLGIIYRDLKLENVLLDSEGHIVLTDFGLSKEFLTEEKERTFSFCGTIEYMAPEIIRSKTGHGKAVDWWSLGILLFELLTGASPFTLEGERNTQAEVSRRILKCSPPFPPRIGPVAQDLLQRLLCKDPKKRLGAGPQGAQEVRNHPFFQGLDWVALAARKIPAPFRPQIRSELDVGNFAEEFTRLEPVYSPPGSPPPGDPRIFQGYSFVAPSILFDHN

Compound: CC(C)COC(=O)c1[nH]c2ccc(F)cc2c1-c1cn(CC2CCN(CCNS(=O)(=O)c3ccc(CC(C)C)cc3)CC2)nn1 [AB668, isobutyl 5-fluoro-3-(1-((1-(2-((4-isobutylphenyl)sulfonamido)ethyl)piperidin-4-yl)methyl)-1H-1,2,3-triazol-4-yl)-1H-indole-2-carboxylate]
- cytotoxicity [1]: no cytotoxicity
- IC50 (CK2 in HEK293 cells): 0.6 ± 0.11 µM
- NES: Asymmetric localization of PCP proteins (786-O cells): -1.441
- NES: G1/S Transition (786-O cells): -1.326
- NES: G2/M Checkpoints (786-O cells): -1.7
- NES: G2/M Transition (786-O cells): -1.306
- NES: Infection with Mycobacterium tuberculosis (786-O cells): 1.8732
- NES: Innate Immune System (786-O cells): 1.345
- NES: Keratan sulfate/keratin metabolism (786-O cells): 1.522
- NES: Mitotic G1 phase and G1/S transition (786-O cells): -1.351
- NES: Mitotic G2-G2/M phases (786-O cells): -1.306
- NES: Response of Mtb to phagocytosis (786-O cells): 1.92
- NES: TBC/RABGAPs (786-O cells): 1.83
- NES: p53-Independent G1/S DNA damage checkpoint (786-O cells): -1.606
- enrichmentScore: Asymmetric localization of PCP proteins (786-O cells): -0.3931
- enrichmentScore: G1/S Transition (786-O cells): -0.3116
- enrichmentScore: G2/M Checkpoints (786-O cells): -0.3959
- enrichmentScore: G2/M Transition (786-O cells): -0.2924
- enrichmentScore: Infection with Mycobacterium tuberculosis (786-O cells): 0.7066
- enrichmentScore: Innate Immune System (786-O cells): 0.2817
- enrichmentScore: Mitotic G2-G2/M phases (786-O cells): -0.2924
- enrichmentScore: Response of Mtb to phagocytosis (786-O cells): 0.737
- enrichmentScore: TBC/RABGAPs (786-O cells): 0.6519
- remaining activity at 2 µM [2]: 64%
- remaining activity at 2 µM (AKT3): 92%
- remaining activity at 2 µM (CDC2L1): 90%
- remaining activity at 2 µM (CDK11): 76%
- remaining activity at 2 µM (CSNK1E): 66%
- remaining activity at 2 µM (CSNK1G1): 90%
- remaining activity at 2 µM (EGFR(E746-A750del)): 88%
- remaining activity at 2 µM [3]: 98%
- remaining activity at 2 µM (EGFR(L858R,T790M)): 83%
- remaining activity at 2 µM (EPHB1): 100%
- remaining activity at 2 µM (ERK5): 88%
- remaining activity at 2 µM (FLT3(K663Q)): 96%
- remaining activity at 2 µM (GRK4): 98%
- remaining activity at 2 µM (IRAK4): 92%
- remaining activity at 2 µM (LRRK2): 65%
- remaining activity at 2 µM (MAP4K4): 96%
- remaining activity at 2 µM (MYLK): 81%
- remaining activity at 2 µM (NEK5): 84%
- remaining activity at 2 µM (NEK6): 87%
- remaining activity at 2 µM (NIK): 72%
- remaining activity at 2 µM (NIM1): 84%
- remaining activity at 2 µM (PIK3CA(E542K)): 99%
- remaining activity at 2 µM (PIK3CD): 91%
- remaining activity at 2 µM (PIP5K2B): 100%
- remaining activity at 2 µM (PRKCQ): 87%
- remaining activity at 2 µM (PRKX): 69%
- remaining activity at 2 µM (RET(M918T)): 94%
- remaining activity at 2 µM (RIOK1): 80%
- remaining activity at 2 µM [4]: 88%
- remaining activity at 2 µM [5]: 81%
- remaining activity at 2 µM (SGK2): 98%
- remaining activity at 2 µM (SRC): 92%
- remaining activity at 2 µM (TNK2): 100%
- remaining activity at 2 µM (ZAP70): 76%
